system: KMS11 (human myeloma cell line); assay: Cell Proliferation Assay (CellTiter-Glo, 3 days); type: cell-based; details: KMS-11, 72 h, KMS11-luc cells
Method: KMS11 (human myeloma cell line), were cultured in IMDM supplemented with 10% FBS, sodium pyruvate and antibiotics. Cells were plated in the same medium at a density of 2000 cells per well into 96 well tissue culture plates, with outside wells vacant, on the day of assay.
Test compounds supplied in DMSO were diluted into DMSO at 500 times the desired final concentrations before dilution into culture media to 2 times final concentrations. Equal volumes of 2× compounds were added to the cells in 96 well plates and incubated at 37° C. for 3 days.
After 3 days plates were equilibrated to room temperature and equal volume of CellTiter-Glow Reagent (Promega) was added to the culture wells. The plates were agitated briefly and luminescent signal was measured with luminometer.
Using the procedures of Cell Proliferation Assay, the EC50 concentrations of compounds of the examples were determined in KMS11 cells as shown in Table 4.

With `C[C@H]1C[C@@H](c2ccncc2NC(=O)c2ccc(F)c(-c3c(F)cc(CCO)cc3F)n2)C[C@@H](N)[C@@H]1O` [Example 34, N-(4-((1R,3R,4R,5S)-3-amino-4-hydroxy-5-methylcyclohexyl)pyridin-3-yl)-6-(2,6-difluoro-4-(2-hydroxyethyl)phenyl)-5-fluoropicolinamide] as the compound, how does the EC50 read?
The EC50 was 29 nM.

For `C[C@H]1C[C@@H](c2ccncc2NC(=O)c2ccc(F)c(-c3c(F)cc(C4(O)COC4)cc3F)n2)C[C@@H](N)[C@@H]1O` [Example 54, N-(4-((1R,3R,4R,5S)-3-amino-4-hydroxy-5-methylcyclohexyl)pyridin-3-yl)-6-(2,6-difluoro-4-(3-hydroxyoxetan-3-yl)phenyl)-5-fluoropicolinamide], which EC50 is on record?
Its EC50 is 95 nM.

How did the EC50 turn out when `C[C@H]1CN(c2ccncc2NC(=O)c2ccc(F)c(-c3c(F)cc(Cl)cc3F)n2)C[C@@H](N)[C@@H]1O` [Example 217, N-(4-((3R,4R,5S)-3-amino-4-hydroxy-5-methylpiperidin-1-yl)pyridin-3-yl)-6-(4-chloro-2,6-difluorophenyl)-5-fluoropicolinamide] was run?
The EC50 was 62 nM.

For `C[C@@H]1C[C@H](N)C[C@H](c2ccncc2NC(=O)c2ccc(F)c(-c3c(F)cc(F)cc3F)n2)C1` [Example 209, N-(4-((1R,3S,5S)-3-amino-5-methylcyclohexyl)pyridin-3-yl)-5-fluoro-6-(2,4,6-trifluorophenyl)picolinamide], which EC50 is on record?
The EC50 was 262 nM.

How did the EC50 turn out when `N[C@H]1CCC[C@@H](c2ccncc2NC(=O)c2ccc(F)c(-c3c(F)cc(C4(O)CCC4)cc3F)n2)C1` [Example 159, N-(4-((1R,3S)-3-aminocyclohexyl)pyridin-3-yl)-6-(2,6-difluoro-4-(1-hydroxycyclobutyl)phenyl)-5-fluoropicolinamide] was run?
Its EC50 is 97 nM.

For `C[C@H]1C[C@@H](c2ccncc2NC(=O)c2ccc(F)c(-c3c(F)cc(C4(O)CCCC4)cc3F)n2)C[C@@H](N)[C@@H]1O` [Example 161, N-(4-((1R,3R,4R,5S)-3-amino-4-hydroxy-5-methylcyclohexyl)pyridin-3-yl)-6-(2,6-difluoro-4-(1-hydroxycyclopentyl)phenyl)-5-fluoropicolinamide], which EC50 is on record?
Its EC50 is 34 nM.

`COc1cc(F)c(-c2nc(C(=O)Nc3cnccc3[C@@H]3C[C@H](C)C[C@H](N)C3)ccc2F)c(F)c1` [Example 11, N-(4-((1R,3S,5S)-3-amino-5-methylcyclohexyl)pyridin-3-yl)-6-(2,6-difluoro-4-methoxyphenyl)-5-fluoropicolinamide] was tested. Which EC50 did it give?
Its EC50 is 71 nM.

For `C[C@H]1C[C@@H](c2ccncc2NC(=O)c2ccc(F)c(-c3c(F)cc(C(C)(C)O)cc3F)n2)C[C@@H](N)[C@@H]1O` [Example 66, N-(4-((1R,3R,4R,5S)-3-amino-4-hydroxy-5-methylcyclohexyl)pyridin-3-yl)-6-(2,6-difluoro-4-(2-hydroxypropan-2-yl)phenyl)-5-fluoropicolinamide], which EC50 is on record?
Its EC50 is 11 nM.

For `C[C@H]1C[C@@H](c2ccncc2NC(=O)c2ccc(F)c(-c3c(F)cc([S@@+](C)[O-])cc3F)n2)C[C@@H](N)[C@@H]1O` [Example 28], which EC50 is on record?
Its EC50 is 3880 nM.

With `C[C@@H]1C[C@H](N)C[C@H](c2ccncc2NC(=O)c2ccc(F)c(-c3c(F)cc(Cl)cc3F)n2)C1` [Example 208, N-(4-((1R,3S,5S)-3-amino-5-methylcyclohexyl)pyridin-3-yl)-6-(4-chloro-2,6-difluorophenyl)-5-fluoropicolinamide] as the compound, how does the EC50 read?
The EC50 was 363 nM.

With `N[C@H]1CCC[C@@H](c2ccncc2NC(=O)c2ccc(F)c(-c3c(F)cc(C4(F)CCOCC4)cc3F)n2)C1` [Example 153, N-(4-((1R,3S)-3-aminocyclohexyl)pyridin-3-yl)-6-(2,6-difluoro-4-(4-fluorotetrahydro-2H-pyran-4-yl)phenyl)-5-fluoropicolinamide] as the compound, how does the EC50 read?
Its EC50 is 366 nM.

Which EC50 does the source give for `N[C@H]1CCC[C@@H](c2ccncc2NC(=O)c2ccc(F)c(-c3c(F)cc(C4CCOCC4)cc3F)n2)C1` [Example 156, N-(4-((1R,3S)-3-aminocyclohexyl)pyridin-3-yl)-6-(2,6-difluoro-4-(tetrahydro-2H-pyran-4-yl)phenyl)-5-fluoropicolinamide] here?
Its EC50 is 436 nM.

How did the EC50 turn out when `Cc1cc(F)c(-c2nc(C(=O)Nc3cnccc3[C@H]3C[C@@H](N)[C@@H](O)[C@@H](C)C3)ccc2F)c(F)c1` [Example 6, N-(4-((1R,3R,4S,5S)-3-amino-4-hydroxy-5-methylcyclohexyl)pyridin-3-yl)-6-(2,6-difluoro-4-methylphenyl)-5-fluoropicolinamide] was run?
The EC50 was 41 nM.

Which EC50 does the source give for `C[C@@H]1C[C@H](N)C[C@H](c2ccncc2NC(=O)c2ccc(F)c(-c3c(F)cc(S(C)(=O)=O)cc3F)n2)C1` [Example 1, N-(4-((1R,3S,5S)-3-amino-5-methylcyclohexyl)pyridin-3-yl)-6-(2,6-difluoro-4-(methylsulfonyl)phenyl)-5-fluoropicolinamide] here?
The EC50 was 383 nM.

With `C[C@@H]1C[C@H](N)C[C@H](c2ccncc2NC(=O)c2ccc(F)c(-c3c(F)cc(CO)cc3F)n2)C1` [Example 224, N-(4-((1R,3S,5S)-3-amino-5-methylcyclohexyl)pyridin-3-yl)-6-(2,6-difluoro-4-(hydroxymethyl)phenyl)-5-fluoropicolinamide] as the compound, how does the EC50 read?
The EC50 was 64 nM.

For `N[C@H]1CCC[C@@H](c2ccncc2NC(=O)c2ccc(F)c(-c3c(F)cc(N4CCOCC4)cc3F)n2)C1` [Example 166, N-(4-((1R,3S)-3-aminocyclohexyl)pyridin-3-yl)-6-(2,6-difluoro-4-morpholinophenyl)-5-fluoropicolinamide], which EC50 is on record?
The EC50 was 325 nM.

For `CC(C)OCc1cc(F)c(-c2nc(C(=O)Nc3cnccc3[C@@H]3CCC[C@H](N)C3)ccc2F)c(F)c1` [Example 155, N-(4-((1R,3S)-3-aminocyclohexyl)pyridin-3-yl)-6-(2,6-difluoro-4-(isopropoxymethyl)phenyl)-5-fluoropicolinamide], which EC50 is on record?
The EC50 was 264 nM.

`CCOCc1cc(F)c(-c2nc(C(=O)Nc3cnccc3[C@@H]3CCC[C@H](N)C3)ccc2F)c(F)c1` [Example 152, N-(4-((1R,3S)-3-aminocyclohexyl)pyridin-3-yl)-6-(4-(ethoxymethyl)-2,6-difluorophenyl)-5-fluoropicolinamide] was tested. Which EC50 did it give?
Its EC50 is 211 nM.

How did the EC50 turn out when `Cc1cc(F)c(-c2nc(C(=O)Nc3cnccc3[C@@H]3C[C@H](C)C[C@H](N)C3)ccc2F)c(F)c1` [Example 8, N-(4-((1R,3S,5S)-3-amino-5-methylcyclohexyl)pyridin-3-yl)-6-(2,6-difluoro-4-methylphenyl)-5-fluoropicolinamide] was run?
Its EC50 is 46 nM.

`C[C@H]1C[C@@H](c2ccncc2NC(=O)c2ccc(F)c(-c3c(F)cc(C4(F)CCOCC4)cc3F)n2)C[C@@H](N)[C@H]1O` [Example 129, N-(4-((1R,3R,4S,5S)-3-amino-4-hydroxy-5-methylcyclohexyl)pyridin-3-yl)-6-(2,6-difluoro-4-(4-fluorotetrahydro-2H-pyran-4-yl)phenyl)-5-fluoropicolinamide] was tested. Which EC50 did it give?
The EC50 was 78 nM.

Which EC50 does the source give for `CC(C)c1cc(F)c(-c2nc(C(=O)Nc3cnccc3[C@H]3C[C@@H](N)[C@H](O)[C@@H](C)C3)ccc2F)c(F)c1` [Example 199, N-(4-((1R,3R,4R,5S)-3-amino-4-hydroxy-5-methylcyclohexyl)pyridin-3-yl)-6-(2,6-difluoro-4-isopropylphenyl)-5-fluoropicolinamide] here?
Its EC50 is 204 nM.

`C[C@H]1C[C@@H](c2ccncc2NC(=O)c2ccc(F)c(-c3c(F)cc(C4(O)CCC4)cc3F)n2)C[C@@H](N)[C@@H]1O` [Example 60, N-(4-((1R,3R,4R,5S)-3-amino-4-hydroxy-5-methylcyclohexyl)pyridin-3-yl)-6-(2,6-difluoro-4-(1-hydroxycyclobutyl)phenyl)-5-fluoropicolinamide] was tested. Which EC50 did it give?
The EC50 was 15 nM.
